Laboratory results taken from patent US20050245399A1, “Pyrazole derivatives as herbicidal compositions containing them” (ISHIHARA SANGYO KAISHA, LTD., priority 2004, published 2005).

Key:
Type in all cases: in vivo
[1] = tested on: rice (Oryza sativa L.: ORYSA); test: Test Example 3 water application herbicidal activity (paddy), transplanted rice ORYSA; details: 63 g a.i./ha, water application 4th day after transplantation of 2 leaf stage rice, visually observed 21st day after application; 0 = untreated control, 100 = complete kill
Outline: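 Rice at 2-leaf stage is transplanted into flooded puddled soil and treated by water application 4 days later, at a predetermined active-ingredient dose. Crop injury is rated visually as growth control (0–100%) 21 days after treatment.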

[2] = tested on: soybean (Glycine max Merr.), GLXMA; test: Test Example 2 post-emergence (foliage treatment) herbicidal activity, GLXMA; details: 63 g a.i./ha
Outline: (§1)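 A small sprayer delivered the diluted WP or EC formulation (500 L/ha water, 0.1% v/v spreader) over emerged seedlings in upland soil pots. Damage relative to untreated plants was graded visually from 0 to 100% three weeks or so later (days 20-23).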

[3] = tested on: barnyardgrass (Echinochloa crus-galli L.): ECHCG; test: Test Example 1 pre-emergence herbicidal activity, ECHCG; details: Rate 63 g a.i./ha, visually observed 20th to 23rd day after application
Outline: (§2)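 Pre-emergence soil spray: wettable powder or emulsifiable concentrate diluted in water (500 L/ha) applied one day after sowing in upland field soil. Visual growth-control rating (%) on days 20–23, 0 = untreated control, 100 = complete kill.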

[4] = tested on: prickly sida (Sida spinosa L.), SIDSP; test: Test Example 2 post-emergence (foliage treatment) herbicidal activity, SIDSP; details: 63 g a.i./ha
Outline: as §1

[5] = tested on: redroot pigweed (Amaranthus retroflexus L.): AMARE; test: Test Example 1 pre-emergence herbicidal activity, AMARE; details: Rate 63 g a.i./ha, visually observed 20th to 23rd day after application
Outline: as §2

[6] = tested on: common cocklebur (Xanthium strumarium L.), XANST; test: Test Example 2 post-emergence (foliage treatment) herbicidal activity, XANST; details: 63 g a.i./ha
From the text: Upland field soil was put into a 1/170,000 ha pot, and seeds of various plants were sown. Then, when the plants reached predetermined leaf stages {1. barnyardgrass (Echinochloa crus-galli L.), ECHCG: 1.1-2.1 leaf stage, 2. crabgrass (Digitaria sanguinalis L.), DIGSA: 1.0-2.0 leaf stage, 3. green foxtail (Setaria viridis L.), SETVI: 1.0-2.2 leaf stage, 4. redroot pigweed (Amaranthus retroflexus L.), AMARE: 0.1-1.5 leaf stage, 5. prickly sida (Sida spinosa L.), SIDSP: 0.1-0.6 leaf stage, 6. velvetleaf (Abutilon theophrasti), ABUTH: 0.1-0.6 leaf stage, 7. common cocklebur (Xanthium strumarium L.), XANST: 0.1 leaf stage, 8. rice (Oryza sativa L.), ORYSA; 1.0-2 leaf stage, 9. wheat (Triticum aestivum L.), TRZAX: 2.3-3.5 leaf stage, 10. corn (Zea mays L.), ZEAMXN 2.1-2.6 leaf stage, 11. soybean (Glycine max Merr.), GLXMA: primary leaf stage}, a wettable powder or emulsifiable concentrate having the compound of the present invention formulated in accordance with a usual formulation method, was weighed so that the active ingredient would be a predetermined amount, and diluted with water in an amount of 500 L/ha. To the diluted solution, 0.1% (v/v) of an agricultural spreader was added. The herbicide adjusted was applied by a small size sprayer for foliage treatment. On the 20th to 23rd day after the application of the herbicide, the growth of the respective plants was visually observed, and the herbicidal effects were evaluated by growth controlling degrees (%) ranging from 0 (equivalent to the untreated control) to 100 (complete kill), whereby the results shown in Table 5, were obtained. Compound Nos. in Table 5 correspond to Compound Nos. in Table 1 and 2 given hereinbefore.

[7] = tested on: rice (Oryza sativa L.): ORYSA; test: Test Example 1 pre-emergence herbicidal activity, ORYSA; details: Rate 63 g a.i./ha, visually observed 20th to 23rd day after application
Outline: as §2

[8] = tested on: redroot pigweed (Amaranthus retroflexus L.), AMARE; test: Test Example 2 post-emergence (foliage treatment) herbicidal activity, AMARE; details: 63 g a.i./ha
Outline: (§3)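 Visual growth-control score (0 = untreated, 100 = complete kill) taken 20th-23rd day after a foliar spray. Seedlings were grown in upland field soil and treated at leaf stage: barnyardgrass 1.1-2.1, crabgrass 1.0-2.0, redroot pigweed 0.1-1.5, rice 1.0-2. Spray volume was 500 L/ha water with 0.1% (v/v) agricultural spreader.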

[9] = tested on: common cocklebur (Xanthium strumarium L.): XANST; test: Test Example 1 pre-emergence herbicidal activity, XANST; details: Rate 63 g a.i./ha, visually observed 20th to 23rd day after application
From the text: Upland field soil was put into a 1/170,000 ha pot, and seeds of various plants {1. barnyardgrass (Echinochloa crus-galli L.): ECHCG, 2. crabgrass (Digitaria sanguinalis L.): DIGSA, 3. green foxtail (Setaria viridis L.): SETVI, 4. redroot pigweed (Amaranthus retroflexus L.): AMARE, 5. prickly sida (Sida spinosa L.): SEDSP, 6. velvetleaf (Abutilon theophrasti): ABUTH, 7. common cocklebur (Xanthium strumarium L.): XANST, 8. rice (Oryza sativa L.): ORYSA, 9. wheat (Triticum aestivum L.): TRZAX, 10. corn (Zea mays L.): ZEAMX, 11. soybean (Glycine max Merr.): GLXMA} were sown. Then, one day after the sowing, a wettable powder or emulsifiable concentrate having the compound of the present invention formulated in accordance with a usual formulation method, was weighed so that the active ingredient would be a predetermined amount and diluted with water in an amount of 500 L/ha. The herbicide adjusted was applied by a small size sprayer for preemergence treatment. On the 20th to 23rd day after the application of the herbicide, the growth of the respective plants was visually observed, and the herbicidal effects were evaluated by growth controlling degrees (%) ranging from 0 (equivalent to the untreated control) to 100 (complete kill), whereby the results shown in Table 4, were obtained. Compound Nos. in Table 4 correspond to Compound Nos. in Table 1 and 2 given hereinbefore.

[10] = tested on: crabgrass (Digitaria sanguinalis L.): DIGSA; test: Test Example 1 pre-emergence herbicidal activity, DIGSA; details: Rate 63 g a.i./ha, visually observed 20th to 23rd day after application
Outline: as §2

[11] = tested on: crabgrass (Digitaria sanguinalis L.), DIGSA; test: Test Example 2 post-emergence (foliage treatment) herbicidal activity, DIGSA; details: 63 g a.i./ha
Outline: as §3

[12] = tested on: corn (Zea mays L.): ZEAMX; test: Test Example 1 pre-emergence herbicidal activity, ZEAMX; details: Rate 63 g a.i./ha, visually observed 20th to 23rd day after application
Outline: as §2

Row | Structure (SMILES) | growth controlling degrees (%) ORYSA [1] | growth controlling degree, GLXMA [2] | Pre-emergence Herbicidal Activity ECHCG (growth controlling degree) [3] | growth controlling degree, SIDSP [4] | Pre-emergence Herbicidal Activity AMARE (growth controlling degree) [5] | growth controlling degree, XANST [6] | Pre-emergence Herbicidal Activity ORYSA (growth controlling degree) [7] | growth controlling degree, AMARE [8] | Pre-emergence Herbicidal Activity XANST (growth controlling degree) [9] | Pre-emergence Herbicidal Activity DIGSP (growth controlling degree) [10] | growth controlling degree, DIGSP [11] | Pre-emergence Herbicidal Activity ZEAMX (growth controlling degree) [12]
1 | COc1c(Cl)cc(F)c(-c2nn(C)c(OC(F)F)c2Cl)c1N(C=O)CC(C)=O [Compound 1-14] | 50% | 60% | 98% | 100% | 100% | 100% | 40% | 100% | 100% | 98% | 98% | 40%
2 | COc1c(Cl)cc(F)c(-c2nn(C)c(OC(F)F)c2Cl)c1N(C=O)C1CCCC1 [Compound 1-10] | 10% | 50% | 90% | 100% | 100% | 100% | 70% | 100% | 100% | 60% | 60% | 40%
